From patent US12338261B2 (SUMITOMO PHARMA ONCOLOGY, INC., priority 2015, dated 2025)
“And” between values parts separate entries of the source, which are not always exact repeats. Equal values may be shown once.

How the values were obtained:
Human plasma stability = type: in vitro ADME; conditions: human plasma
Procedure: The plasma stability of compound IB′ was determined using plasma from four species.

[1] = CD-1, mouse, in vivo

## CN1CC[C@H](c2c(OP(=O)(O)O)cc(O)c3c(=O)cc(-c4ccccc4Cl)oc23)[C@H](O)C1 [Compound IB′, 2-(2-chlorophenyl)-5-hydroxy-8-(3-hydroxy-1-methylpiperidin-4-yl)-4-oxo-4H-chromen-7-yl dihydrogen phosphate]
Human plasma stability; 0 hours
  % Remaining: 100.00%
Human plasma stability; 0.5 hours
  % Remaining: 96.32%
Human plasma stability; 1 hour
  % Remaining: 88.01%
Human plasma stability; 2 hours
  % Remaining: 104.22%
Human plasma stability; 3 hours
  % Remaining: 102.59%
Human plasma stability; 4 hours
  % Remaining: 94.36%
Human plasma stability; 5 hours
  % Remaining: 100% and 100.26%
[1]
  Bioavail.: 182.3 ± 20.0 % F
